Columns and labels:
Assay in all cases: relative viability (nuclei count vs DMSO), 5 days (fraction); higher = more cells survive
LOU-NH91 = test system: LOU-NH91
Procedure, shortened: (§1)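 Dosing by pin tool came one day after lung cancer cell lines were seeded in 1536-well plates, using either one drug or a fixed anchor-drug dose plus five library-drug doses (not always all listed) in √10 steps. After 5 days, nuclei were counted on 4× images. Relative viability is treated-well nuclei count divided by vehicle-well nuclei count, and values are medians of duplicate plates.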

NCI-H2087 = test system: NCI-H2087
Procedure, shortened: as §1

HCC-366 = test system: HCC-366
Procedure, shortened: as §1

SK-LU-1 = test system: SK-LU-1
Procedure, shortened: as §1

HCC-827 = test system: HCC-827
Procedure, shortened: as §1

NCI-H1993 = test system: NCI-H1993
Procedure, shortened: as §1

NCI-H1437 = test system: NCI-H1437
Procedure, shortened: as §1

HARA = test system: HARA
Procedure, shortened: as §1

NCI-H1734 = test system: NCI-H1734
Procedure, shortened: as §1

EKVX = test system: EKVX
Procedure, shortened: as §1

BEN = test system: BEN
Procedure, shortened: as §1

NCI-H647 = test system: NCI-H647
Procedure, shortened: as §1

NCI-H661 = test system: NCI-H661
Procedure, shortened: as §1

SK-MES-1 = test system: SK-MES-1
Procedure, shortened: as §1

NCI-H522 = test system: NCI-H522
Procedure, shortened: as §1

NCI-H2170 = test system: NCI-H2170
Procedure, shortened: as §1

NCI-H1355 = test system: NCI-H1355
Procedure, shortened: as §1

NCI-H1395 = test system: NCI-H1395
Procedure, shortened: as §1

NCI-H2342 = test system: NCI-H2342
Procedure, shortened: as §1

NCI-H1792 = test system: NCI-H1792
Procedure, shortened: as §1

NCI-H2405 = test system: NCI-H2405
Procedure, shortened: as §1

NCI-H2009 = test system: NCI-H2009
Procedure, shortened: as §1

COc1cc2nccc(Oc3ccc(NC(=O)Nc4cc(C)on4)c(Cl)c3)c2cc1OC [Tivozanib] + COc1cccc2cc(-c3nc([C@H]4CC[C@H](C(=O)O)CC4)n4ncnc(N)c34)[nH]c12 [OSI-027] (partner 0.5 µM)
relative viability (LOU-NH91; first compound 0.005 µM): 0.695 | relative viability (LOU-NH91; first compound 0.01581 µM): 0.807 | relative viability (LOU-NH91; first compound 0.05 µM): 0.762 | relative viability (LOU-NH91; first compound 0.1581 µM): 0.61 | relative viability (LOU-NH91; first compound 0.5 µM): 0.729 | relative viability (NCI-H2087; first compound 0.005 µM): 0.461 | relative viability (NCI-H2087; first compound 0.01581 µM): 0.6 | relative viability (NCI-H2087; first compound 0.05 µM): 0.558 | relative viability (NCI-H2087; first compound 0.1581 µM): 0.376 | relative viability (NCI-H2087; first compound 0.5 µM): 0.44 | relative viability (HCC-366; first compound 0.005 µM): 0.839 | relative viability (HCC-366; first compound 0.01581 µM): 0.849 | relative viability (HCC-366; first compound 0.05 µM): 1.02 | relative viability (HCC-366; first compound 0.1581 µM): 0.707 | relative viability (HCC-366; first compound 0.5 µM): 0.57 | relative viability (SK-LU-1; first compound 0.005 µM): 0.343 | relative viability (SK-LU-1; first compound 0.01581 µM): 0.314 | relative viability (SK-LU-1; first compound 0.05 µM): 0.383 | relative viability (SK-LU-1; first compound 0.1581 µM): 0.24 | relative viability (SK-LU-1; first compound 0.5 µM): 0.338 | relative viability (HCC-827; first compound 0.005 µM): 0.74 | relative viability (HCC-827; first compound 0.01581 µM): 0.693 | relative viability (HCC-827; first compound 0.05 µM): 0.766 | relative viability (HCC-827; first compound 0.1581 µM): 0.621 | relative viability (HCC-827; first compound 0.5 µM): 0.763 | relative viability (NCI-H1993; first compound 0.005 µM): 0.503 | relative viability (NCI-H1993; first compound 0.01581 µM): 0.534 | relative viability (NCI-H1993; first compound 0.05 µM): 0.543 | relative viability (NCI-H1993; first compound 0.1581 µM): 0.518 | relative viability (NCI-H1993; first compound 0.5 µM): 0.429 | relative viability (NCI-H1437; first compound 0.005 µM): 0.887 | relative viability (NCI-H1437; first compound 0.01581 µM): 0.843 | relative viability (NCI-H1437; first compound 0.05 µM): 0.946 | relative viability (NCI-H1437; first compound 0.1581 µM): 0.661 | relative viability (NCI-H1437; first compound 0.5 µM): 0.837 | relative viability (HARA; first compound 0.005 µM): 0.549 | relative viability (HARA; first compound 0.01581 µM): 0.481 | relative viability (HARA; first compound 0.05 µM): 0.65 | relative viability (HARA; first compound 0.1581 µM): 0.196 | relative viability (HARA; first compound 0.5 µM): 0.28 | relative viability (NCI-H1734; first compound 0.005 µM): 0.567 | relative viability (NCI-H1734; first compound 0.01581 µM): 0.621 | relative viability (NCI-H1734; first compound 0.05 µM): 0.592 | relative viability (NCI-H1734; first compound 0.1581 µM): 0.429 | relative viability (NCI-H1734; first compound 0.5 µM): 0.558 | relative viability (EKVX; first compound 0.005 µM): 0.665 | relative viability (EKVX; first compound 0.01581 µM): 0.735 | relative viability (EKVX; first compound 0.05 µM): 0.67 | relative viability (EKVX; first compound 0.1581 µM): 0.585 | relative viability (EKVX; first compound 0.5 µM): 0.731 | relative viability (BEN; first compound 0.005 µM): 0.281 | relative viability (BEN; first compound 0.01581 µM): 0.306 | relative viability (BEN; first compound 0.05 µM): 0.311 | relative viability (BEN; first compound 0.1581 µM): 0.298 | relative viability (BEN; first compound 0.5 µM): 0.318 | relative viability (NCI-H647; first compound 0.005 µM): 0.74 | relative viability (NCI-H647; first compound 0.01581 µM): 0.618 | relative viability (NCI-H647; first compound 0.05 µM): 0.728 | relative viability (NCI-H647; first compound 0.1581 µM): 0.526 | relative viability (NCI-H647; first compound 0.5 µM): 0.658 | relative viability (NCI-H661; first compound 0.005 µM): 0.672 | relative viability (NCI-H661; first compound 0.01581 µM): 0.73 | relative viability (NCI-H661; first compound 0.05 µM): 0.724 | relative viability (NCI-H661; first compound 0.1581 µM): 0.646 | relative viability (NCI-H661; first compound 0.5 µM): 0.688 | relative viability (SK-MES-1; first compound 0.005 µM): 0.515 | relative viability (SK-MES-1; first compound 0.01581 µM): 0.573 | relative viability (SK-MES-1; first compound 0.05 µM): 0.7 | relative viability (SK-MES-1; first compound 0.1581 µM): 0.515 | relative viability (SK-MES-1; first compound 0.5 µM): 0.583 | relative viability (NCI-H522; first compound 0.005 µM): 0.722 | relative viability (NCI-H522; first compound 0.01581 µM): 0.788 | relative viability (NCI-H522; first compound 0.05 µM): 0.783 | relative viability (NCI-H522; first compound 0.1581 µM): 0.677 | relative viability (NCI-H522; first compound 0.5 µM): 0.604 | relative viability (NCI-H2170; first compound 0.005 µM): 0.633 | relative viability (NCI-H2170; first compound 0.01581 µM): 0.78 | relative viability (NCI-H2170; first compound 0.05 µM): 0.723 | relative viability (NCI-H2170; first compound 0.1581 µM): 0.464 | relative viability (NCI-H2170; first compound 0.5 µM): 0.661 | relative viability (NCI-H1355; first compound 0.005 µM): 0.419 | relative viability (NCI-H1355; first compound 0.01581 µM): 0.48 | relative viability (NCI-H1355; first compound 0.05 µM): 0.475 | relative viability (NCI-H1355; first compound 0.1581 µM): 0.273 | relative viability (NCI-H1355; first compound 0.5 µM): 0.343 | relative viability (NCI-H1395; first compound 0.005 µM): 0.52 | relative viability (NCI-H1395; first compound 0.01581 µM): 0.635 | relative viability (NCI-H1395; first compound 0.05 µM): 0.648 | relative viability (NCI-H1395; first compound 0.1581 µM): 0.546 | relative viability (NCI-H1395; first compound 0.5 µM): 0.528 | relative viability (NCI-H2342; first compound 0.005 µM): 0.67 | relative viability (NCI-H2342; first compound 0.01581 µM): 0.556 | relative viability (NCI-H2342; first compound 0.05 µM): 0.644 | relative viability (NCI-H2342; first compound 0.5 µM): 0.562 | relative viability (NCI-H1792; first compound 0.005 µM): 0.665 | relative viability (NCI-H1792; first compound 0.01581 µM): 0.633 | relative viability (NCI-H1792; first compound 0.05 µM): 0.68 | relative viability (NCI-H1792; first compound 0.1581 µM): 0.728 | relative viability (NCI-H1792; first compound 0.5 µM): 0.746 | relative viability (NCI-H2405; first compound 0.005 µM): 0.631 | relative viability (NCI-H2405; first compound 0.01581 µM): 0.716 | relative viability (NCI-H2405; first compound 0.05 µM): 0.684 | relative viability (NCI-H2405; first compound 0.1581 µM): 0.526 | relative viability (NCI-H2405; first compound 0.5 µM): 0.577 | relative viability (NCI-H2009; first compound 0.005 µM): 0.605 | relative viability (NCI-H2009; first compound 0.01581 µM): 0.689 | relative viability (NCI-H2009; first compound 0.05 µM): 0.65 | relative viability (NCI-H2009; first compound 0.1581 µM): 0.374 | relative viability (NCI-H2009; first compound 0.5 µM): 0.386
